In PubChem BioAssay (NCI) one finds TGI and GI50 data, which are given here for 14 compounds.

Test systems include SNB-78 CNS; DLD-1 colon; KM20L2 colon; LXFL 529 NSCLC; XF 498 CNS; DMS 273 small cell lung; LOX IMVI melanoma; M19-MEL melanoma; DMS 114 small cell lung; IGROV1 ovarian; RXF 393 renal; HOP-18 NSCLC; NCI/ADR-RES ovarian.
Common to all, as to test: growth of human tumour cells (NCI), 48 h

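All cell lines were grown in 96-well plates and treated with compound for 48 hours. GI50 = concentration required for 50% inhibition of growth. At the TGI there is no net growth.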 A value given as a limit tells only on which side of the number the result lay.

Consider `COc1ccc(C[C@@H]2Cc3cc(OC)c(OC)cc3CN2C)cc1`, for which the TGI with SNB-78 CNS, in the test on DLD-1 colon, with KM20L2 colon, with LXFL 529 NSCLC and in the test with XF 498 CNS was greater than 100 µM throughout.

Consider `O=C1CCCCC1CN1CCCC1` (configuration not stated), for which the TGI in the test on DMS 273 small cell lung, with LOX IMVI melanoma, in the test on SNB-78 CNS, in the test with M19-MEL melanoma, in the test with DMS 114 small cell lung and in the test with DLD-1 colon was greater than 100 µM throughout. The TGI in the test with KM20L2 colon, in the test with LXFL 529 NSCLC, in the test with IGROV1 ovarian and in the test with XF 498 CNS was greater than 100 µM throughout.

Turning to `COc1cccc(-c2cc(=O)c3cc(OC)c(OC)cc3[nH]2)c1`, the TGI with DMS 273 small cell lung, with LOX IMVI melanoma, with SNB-78 CNS, with M19-MEL melanoma, with DMS 114 small cell lung and in the test on DLD-1 colon was greater than 100 µM in each case. Moreover, the TGI with KM20L2 colon, in the test with LXFL 529 NSCLC, in the test on RXF 393 renal and in the test on IGROV1 ovarian was greater than 100 µM throughout. Further, the GI50 with DMS 114 small cell lung was 54.4 µM; in the test on RXF 393 renal, 33.3 µM.

Regarding `OC12c3ccccc3C1(N1CCOCC1)CCCCC21OCCCO1` (configuration not stated), the TGI in the test on DMS 273 small cell lung, with LOX IMVI melanoma, in the test with SNB-78 CNS, with HOP-18 NSCLC, in the test with DMS 114 small cell lung and with DLD-1 colon was greater than 100 µM in each case. Moreover, the TGI in the test with KM20L2 colon, with LXFL 529 NSCLC, in the test with RXF 393 renal and in the test on IGROV1 ovarian was greater than 100 µM each time.

In the case of `Cc1nc2c(n1CCO)C(=O)c1ccccc1C2=O`, the TGI in the test with DMS 273 small cell lung was 70.2 µM; in the test on LOX IMVI melanoma, greater than 100 µM; in the test with SNB-78 CNS it was greater than 100 µM; in the test on M19-MEL melanoma, 6.6 µM; with DLD-1 colon it was greater than 100 µM; in the test with KM20L2 colon, greater than 100 µM. The TGI is greater than 100 µM in the test with LXFL 529 NSCLC, greater than 100 µM with RXF 393 renal, 84 µM in the test with IGROV1 ovarian and 92.9 µM in the test on XF 498 CNS.

With `COc1ccc(N2C(=O)C3c4[nH]c5ccccc5c4C4CCCCCCCCCCC4C3C2=O)cc1` (configuration not stated), the TGI in the test with DMS 273 small cell lung was 18.6 µM; in the test on LOX IMVI melanoma it was greater than 46.6 µM; in the test with HOP-18 NSCLC, 6.53 µM; in the test with M19-MEL melanoma, greater than 52.2 µM; with DMS 114 small cell lung, greater than 47.5 µM; with DLD-1 colon, greater than 39.9 µM. Besides, the TGI with KM20L2 colon was 11.5 µM; in the test with LXFL 529 NSCLC, 23.7 µM; with IGROV1 ovarian, greater than 48.7 µM; with XF 498 CNS, 28 µM.

Take `CCOC(=O)c1c(N)nn2c1cc1cccccc12`: the TGI is 72.9 µM with LOX IMVI melanoma, 57.7 µM in the test on NCI/ADR-RES ovarian, greater than 100 µM in the test with RXF 393 renal and 94.8 µM with IGROV1 ovarian.

For the compound `CC(=O)c1cccc(NC(=O)/C(=N\NC(C)(C)C)c2c(O)c3ccccc3oc2=O)c1`, the TGI in the test with DMS 273 small cell lung, in the test with LOX IMVI melanoma, in the test on HOP-18 NSCLC, with M19-MEL melanoma, with DMS 114 small cell lung and in the test on DLD-1 colon was greater than 100 µM each time. Further, the TGI with KM20L2 colon, in the test on LXFL 529 NSCLC, in the test with RXF 393 renal, in the test with IGROV1 ovarian and with XF 498 CNS was greater than 100 µM throughout.

As to `COc1ccc(N(C)S(=O)(=O)c2ccccc2)cc1`, the TGI with LOX IMVI melanoma, with NCI/ADR-RES ovarian, with RXF 393 renal and with IGROV1 ovarian was greater than 100 µM in each case.

As for `Cc1nc(C)c(C(=O)NNC(=O)Cc2ccccc2)cc1C(=O)NNC(=O)Cc1ccccc1`, the TGI in the test with LOX IMVI melanoma, in the test on NCI/ADR-RES ovarian, in the test on RXF 393 renal and with IGROV1 ovarian was greater than 100 µM in each case.

Consider `O=C1/C(=C/c2cccnc2)C(n2cccc2)c2c(Br)sc(Br)c21` (configuration not stated), for which the TGI with LOX IMVI melanoma is 3.89 µM; with NCI/ADR-RES ovarian it was greater than 52 µM; in the test on RXF 393 renal, 4.45 µM; in the test with IGROV1 ovarian, 3.38 µM.

Take `O=C(Nc1cc(C(=O)Nc2cccc(S(=O)(=O)O)c2)cc(C(=O)Nc2cccc(S(=O)(=O)O)c2)c1)c1cccc(C(=O)Nc2cc(C(=O)Nc3cccc(S(=O)(=O)O)c3)cc(C(=O)Nc3cccc(S(=O)(=O)O)c3)c2)c1`: the TGI in the test on LOX IMVI melanoma, in the test with NCI/ADR-RES ovarian, with RXF 393 renal and in the test with IGROV1 ovarian was greater than 100 µM in each case.

With `CNC(=O)CN(CC(=O)NC)C(=O)NC`, the TGI with DMS 273 small cell lung, with LOX IMVI melanoma, in the test with SNB-78 CNS, in the test on M19-MEL melanoma, in the test with DLD-1 colon and in the test with KM20L2 colon was greater than 100 µM in each case. Moreover, the TGI in the test on LXFL 529 NSCLC, in the test with RXF 393 renal, in the test on IGROV1 ovarian and in the test on XF 498 CNS was greater than 100 µM throughout.

As to `O=c1[nH]nc(Cc2ccccc2)n1/N=C/c1c(O)ccc2ccccc12`, the TGI is greater than 100 µM in the test with LOX IMVI melanoma, 64.2 µM in the test on NCI/ADR-RES ovarian, 49.6 µM with RXF 393 renal and 93.4 µM in the test with IGROV1 ovarian.
